Where two headings read alike, the source gives them in different places.
What was measured:
MM.1S cells = assay: cells; assay type: cell-based; conditions: Homo sapiens, MM1.S, read-out: percentage of nonviable cells by trypan blue exclusion
Protocol: Assessment of HNK-induced cytotoxicity against patient MM cells: Cytotoxicity of HNK against fresh MM cells was determined as previously determined, see, for example, Mitsiades et al Cancer Cell. 2004; 5:221-230. Fresh MNCs separated from bone marrow samples derived from patients with MM were incubated with PE-conjugated anti-CD138 antibody and/or FITC-conjugated anti-CD38 antibody (BD Biosciences, San Diego, Calif.) for 30 minutes on ice and washed, followed by analysis using EPICS XL flow cytometer (Beckman Coulter, Hialeah, Fla.). A CD38^high fraction enriched for MM cells was determined in side and forward scatter panel in each case. The expression of CD138 on gated cells was also evaluated. After HNK-treatment for 48 h, cells were harvested and percentage of CD38^high cells with or without HNK-treatment was evaluated. […] Cells were stained with propidium iodide (PI; 50 μg/mL; Sigma, St Louis, Mo.), and cell cycle profile was determined by using the program M software on an EPICS XL flow cytometer (Beckman Coulter, Hialeah, Fla.). […] Fluorescence intensity of TUNEL and APO 2.7 staining was determined using on EPICS XL flow cytometer. Cytotoxicity was determined by trypan blue exclusion assay. […] Cell growth and induction of apoptosis were determined both by colorimetric assay and now cytometric detection of APO2.7 after 48 h treatment. […] DNA synthesis was measured by [^3H]-thymidine uptake. […]

SU-DHL-4 cells = assay: induction of apoptosis; assay type: cell-based; conditions: cells resistant to doxorubicin and As2O3-induced apoptosis; without activation of caspase 3
From the text: However, in contrast to the complete block of As2O3-induced apoptosis by z-VAD-fmk, inhibition of HNK-induced apoptosis by z-VAD-fmk was only partial, evidenced by PARP cleavage and APO2.7 assay (FIGS. 7B and D).
HNK induces apoptosis in SU-DHL4 cells, which express low levels of caspase-8 and -3 and are resistant to doxorubicin, As2O3, melphalan, dexamethasone, bortezomib (Chauhan et al. Cancer Res. 2003; 63:6174-6177), and revlimid. Therefore, agents such as HNK which kill MM cells via both caspase-dependent and caspase-independent pathways may be particularly useful to overcome drug resistance.

HUVEC = assay: direct toxicity against HUVEC (colorimetric assay); assay type: cell-based, human; conditions: 8 ug/ml
heart AMPKK = assay: direct activation of AMPKK in vitro; assay type: biochemical
[1] = tested on: phospholipase D in SVR cells; assay: phospholipase D activity; assay type: cell-based; conditions: 0.5% and 10% serum
From the text: Honokiol analogs can stimulate tumor and endothelial cell apoptosis through inhibition of PLD activity. […] Treatment with […] causes downregulation of S6kinase phosphorylation in a time and dose dependent fashion, as well as downregulation of akt. Thus, honokiol mimics several of the activities of wild type tuberin.

NF-kB in A293 cells = assay: NF-kB-dependent reporter gene (SEAP) transcription; assay type: cell-based, human; conditions: A293, 25 mM (printed) honokiol 12 h
Protocol: A293 cells were transiently transfected with an NF-kB-containing plasmid linked to the SEAP gene and then treated with the indicated concentrations of honokiol. After 24 h in culture with 0.1 nM TNF, cell supernatants were collected and assayed for SEAP activity. Results are expressed as fold activity over the activity of the vector control. […] A293 cells were transiently transfected with the indicated plasmids along with an NF-kB-containing plasmid linked to the SEAP gene and then left either untreated or treated with 25 mM honokiol for 12 h. Cell supernatants were assayed for secreted alkaline phosphatase activity. Results are expressed as fold activity over the activity of the vector control. Bars indicate standard deviation.
NF-kB-dependent reporter gene transcription. The effect of honokiol on TNF-induced NF-kB dependent reporter gene transcription in A293 cells was measured as previously described (Shishodia, S., et al. 2003 Cancer Res. 63:4375-4383).
To test the effect of honokiol on NF-kB-dependent gene transcription, cells were transiently transfected with the NF-kB-regulated SEAP reporter construct and then stimulated with TNF.

COX2 promoter = assay: COX-2 promoter-dependent reporter luciferase gene expression; assay type: cell-based, human; conditions: 0.1 nM TNF 24 h
Protocol: H1299 cells were transiently transfected with a COX-2 promoter plasmid linked to the luciferase gene and then treated with the indicated concentrations of honokiol. After 24 h in culture with 0.1 nM TNF, cell supernatants were collected and assayed for luciferase activity. Results are expressed as fold activity over the activity of the vector control. Values are means ±SD (indicated as error bars) of triplicate cultures for a representative experiment out of 3 independent ones showing similar results.
COX-2 promoter-dependent reporter luciferase gene expression. COX-2 promoter activity was examined as described elsewhere (Shishodia, S., et al. 2003 Cancer Res. 63:4375-4383). To further determine the effect of honokiol on COX-2 promoter, A293 cells were seeded at a concentration of 1.5×10^5 cells per well in six-well plates. […] The COX-2 promoter (−375 to +59), which was amplified from human genomic DNA by using the primers 5′-[sequence]-3′ (sense) and 5′-[sequence]-3′ (antisense). After a 6-h exposure to the transfection mixture, the cells were incubated in medium containing honokiol for 12 h. The cells were exposed to TNF (0.1 nM) for 24 h and then harvested. Luciferase activity was measured by using the Luclite luciferase assay system (Perkin-Elmer, Boston, Mass.) according to the manufacturer's protocol and detected by luminometer (Victor 3, Perkin-Elmer).

C=CCc1ccc(O)c(-c2ccc(O)c(CC=C)c2)c1 [HNK, Honokiol]
cytotoxicity at 10 µg/mL (MM.1S cells; 24 h): 30.7 ± 5.5%
cytotoxicity at 10 µg/mL (MM.1S cells): 27.6 ± 6.4%
apoptosis in SU-DHL-4 cells (SU-DHL-4 cells): induced apoptosis in SU-DHL-4 cells
viability of HUVEC cells (HUVEC): did not affect the viability of HUVEC cells
direct activation of heart AMPKK (heart AMPKK): does not directly activate heart AMPKK in vitro
activity of phospholipase D [1]: inhibits the activity of phospholipase D in both 0.5% and 10% serum
SEAP expression induced by TNFR1, TRADD, TRAF2, NIK, IKKb, and p65 plasmids (NF-kB in A293 cells): suppressed SEAP expression in all cells except those transfected with p65
TNF-induced COX2 promoter activity (COX2 promoter): inhibited the TNF-induced COX2 promoter activity in a dose-dependent manner

From patent publication US20080300298A1, “Honokiol Derivates For the Treatment of Proliferative Disorders” (priority 2005, published 2008)
